Reference: patent EP0453119A1, “Modified beta adrenergic receptor” (MERCK & CO. INC., priority 1990, dated 1991)

The compounds below were run against T1, Wild-type βAR (Mesocricetus auratus, UniProt P04274) (assay: Adenylyl cyclase stimulation in membranes of mouse L cells expressing the wild-type receptor). Conditions: not given.
T1 construct: pSVHAC contains the full length hamster ß₂AR cDNA cloned into the EcoRI site of pSVL; expressed in transfected cells; host or cells: mouse L cells (clonal lines, membranes)
Format: biochemical, hamster
Description: (§1) Expression in mammalian cells. For the establishment of clonal cell lines expressing mutant receptors, the plasmid DNAs were transfected into mouse L cells by the CaPO₄ procedure. […] The precipitate was added to the media covering subconfluent monolayers of mouse L cells in 100 mm petri dishes and incubated at 37°C for 4 hrs. The media was removed and the cells were washed once with Dulbecco's modified minimal essential medium (DMEM). […] DMEM containing 10% fetal bovine serum was then added to the monolayers and the cells were incubated at 37°C for 12-18 hrs. The medium was changed to DMEM containing 10% fetal bovine serum and […] genticin to select for cells containing the expression vector. […] Individual colonies were isolated and expanded into cell lines.
(§2) Membranes were prepared from L cell monolayers by hypotonic lysis in 10 mM Tris, pH 7.5 for 10 min at 4°C.
(§3) The reaction was allowed to proceed for 30 min at 30°C before it was quenched at 4°C with an excess of unlabeled ATP. The ³²P-cAMP produced was determined by Dowex and alumina chromatography, as described by Salomon et al., supra.
Data Analysis. […] The Michaelis-Menton equation was used: V=Vmax[A]/Kact+[A], where V is the level of cyclase stimulation (in pmol ³²P-cAMP/mg protein/min) measured at a given agonist concentration [A], and Vmax is the calculated maximal stimulation at infinite agonist concentration.

T1 sequence (P04274 whole entry): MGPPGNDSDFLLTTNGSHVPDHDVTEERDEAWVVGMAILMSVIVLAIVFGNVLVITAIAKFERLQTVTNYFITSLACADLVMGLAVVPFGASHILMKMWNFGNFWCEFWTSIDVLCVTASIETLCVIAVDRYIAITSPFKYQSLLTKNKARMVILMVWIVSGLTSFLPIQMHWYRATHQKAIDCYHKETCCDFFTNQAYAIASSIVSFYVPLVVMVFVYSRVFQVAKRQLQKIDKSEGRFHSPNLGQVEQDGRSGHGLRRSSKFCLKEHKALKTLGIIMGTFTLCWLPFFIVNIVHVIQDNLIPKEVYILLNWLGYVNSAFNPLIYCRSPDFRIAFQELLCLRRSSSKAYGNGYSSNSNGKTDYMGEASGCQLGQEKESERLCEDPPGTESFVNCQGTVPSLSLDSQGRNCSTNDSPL

SMILES	EC50 [nM]
CNC[C@H](O)c1ccc(O)c(O)c1 [Compound 2, epinephrine]	300

What follows are compounds tested against T2, [Ser^113]βAR (Mesocricetus auratus, UniProt P04274, D113S) (assay: Adenylyl cyclase stimulation in membranes of mouse L cells expressing the mutant receptor). Conditions: result in words, acids compared with the corresponding esters.
T2 construct: pSVHAC contains the full length hamster ß₂AR cDNA cloned into the EcoRI site of pSVL; expressed in transfected cells; host or cells: mouse L cells (clonal lines, membranes)
Format: biochemical, hamster
Description: Mutagenesis of the ßAR gene. […] Other standard cloning techniques were performed as described by the former Manual and would be easily reproduced by anyone trained in molecular biology. An oligonucleotide 19 nucleotides in length complementary to the phage DNA surrounding the codon for Asp¹¹³ were synthesized using an Applied Biosystems Model 3A DNA synthesizer. The oligonucleotide contained mismatched positions in order to convert the codon for Asp¹¹³ (GAT) to Ser ([…]). The oligonucleotide was annealed to the phage DNA for priming and extended using Klenow DNA polymerase and T4 DNA ligase. […] The ßAR gene in this vector utilizes the SV40 early promoter, the modified splice signal, and the ßAR polyadenylation site for expression. The ligated mixture was transformed into E. coli strain DH5 (Bethesda Research Laboratories) and ampicillin resistant colonies were screened by filter hybridization using the oligonucleotide corresponding to the mutation as the hybridization probe. Plasmids were isolated from several hybridization positive colonies and mapped to insure the proper DNA insert was contained in the clone. The mutations were resolved by retransformation of the plasmid DNA into E. coli. Mutant plasmid containing colonies were again isolated by filter hybridization as above. Plasmid DNA was isolated from overnight cultures of cells by alkaline lysis and twice banding in CsCl-ethidium bromide equilibrium density gradients. […] The purity of the plasmid preparation was tested by retransformation of the DNA into E. coli followed by colony hybridization. […] Plasmid DNA was isolated as above and confirmed by restriction mapping.
as §1, §2, §3
Data Analysis. Activation constant (Kact) values for adenylyl cyclase stimulation were obtained by computer assisted nonlinear regression analysis of curves generated in the presence of increasing concentrations of compounds. The Michaelis-Menton equation was used: V=Vmax[A]/Kact+[A], where V is the level of cyclase stimulation (in pmol ³²P-cAMP/mg protein/min) measured at a given agonist concentration [A], and Vmax is the calculated maximal stimulation at infinite agonist concentration.

T2 sequence (P04274 whole entry D113S): as the sequence (P04274 whole entry) above, with D113S counted along it

SMILES	activation of [Ser¹¹³]ßAR
COC(=O)/C=C/c1ccc(O)c(O)c1 [Compound 7]	activated
O=C(O)/C=C/c1ccc(O)c(O)c1 [Compound 8]	less effective
O=C(O)C(=O)Cc1ccc(O)c(O)c1 [Compound 10]	less effective
CCOC(=O)C(O)c1ccc(O)c(O)c1 (centres unmarked) [Compound 12]	weakly
CCOC(=O)CC(O)c1ccc(O)c(O)c1 (centres unmarked) [Compound 13]	activated

Further lines, results first:

activation of [Ser¹¹³]ßAR	SMILES
activated	CCOC(=O)CCc1ccc(O)c(O)c1 [Compound 5]
less effective	O=C(O)CCc1ccc(O)c(O)c1 [Compound 6]
activated	CCOC(=O)C(=O)Cc1ccc(O)c(O)c1 [Compound 9]
activated	CCOC(=O)Cc1ccc(O)c(O)c1 [Compound 11]

What follows are compounds tested against T3, [Ser¹¹³]ßAR (Mesocricetus auratus, UniProt P04274, D113S) (assay: not given). Conditions: COS-7 cell membranes; equilibrium binding.
T3 construct: pSVHAC contains the full length hamster ß₂AR cDNA cloned into the EcoRI site of pSVL; expressed in transfected cells; host or cells: COS-7 cells (membranes)
Set-up: species or system hamster
Description: Membrane Preparation. COS-7 cell monolayers were washed 3 times in PBS, scraped from the flask with a rubber policeman, and centrifuged at 2000 x g for 5 min. The cell pellet was resuspended in 75 mM Tris, pH 7.4, 12.5 mM MgCl₂, […] EDTA (TME buffer) at a concentration of 10⁸ cells/ml, then diluted 1:5 with water and lysed by freezing in liquid N₂ and thawing with vigorous vortexing. Nuclei were removed by centrifugation over a cushion of 60% sucrose at 2500 x g for 15 min. The upper layer was collected, membranes pelleted by centrifugation at 40,000 x g for 15 min,and resuspended in TME at a protein concentration of 1-2 mg/ml.
Receptor Assays. ¹²⁵I-CYP binding to membranes was measured in a final volume of 250 ul of TME buffer, containing […] of membrane protein and 225 pM ¹²⁵I-CYP for 90 min at 23°C, as previously described Dixon et al. (1987), supra. Membranes were collected by filtration on GF/C glass fiber filters and bound ¹²⁵I-CYP was detected with a gamma counter. Nonspecific binding, measured in the presence of […] alprenolol, was subtracted from the total binding.

T3 sequence (P04274 whole entry D113S): as the sequence (P04274 whole entry) above, with D113S counted along it

SMILES	¹²⁵I-CYP binding
CC(C)(C)NCC(O)COc1cccc2[nH]c(C#N)c([125I])c12 (centres unmarked) [¹²⁵I-CYP, ¹²⁵I-cyanopindolol]	did not bind detectable levels
